Measured values published in patent US20040132121A1, “Method of identifying antibacterial compounds” (priority 2000, published 2004).
Entries after “also recorded” stand apart in the source; their conditions may differ.

Assays:
[1] = target: T1, binding of E. coli α to E. coli β (Escherichia coli, UniProt P0A988); assay: biochemical; conditions: Table 21; Molsci (CMS) compounds, buffer BB37 (10 mM MnCl2); read-out: IC50 α-binding
T1 construct: made in house
Protocol: Recombinantly expressed wild type E. coli α subunit was purified and coated onto 96 well microtitre plates (Falcon flexible plates, Becton Dickinson) at 20 μg/ml in 100 mM Na2CO3, pH9.5 (50 μl/well, 4° C. overnight or 2 h, RT (RT). The plates were washed in WB3 (20 mM Tris (pH 7.5), 0.1 mM EDTA containing 0.05% v/v Tween 20). This buffer was used in all wash steps through out the assay. The plates were then blocked with “blotto” (5% skim milk powder in WB3, 100 μl/well, RT) until required. Immediately before use the plates were washed.
The purified synthetic peptides and β subunit were diluted in BB14 (20 mM Tris, pH 7.5, 10 mM MgCl2, 0.1 mM EDTA). Purified synthetic peptides with concentrations of 9.3-300 and 1000 μg/ml were allowed to complex with purified wild type β subunit (5 μg/ml) in a 96 well microtitre plate (Sarsted, Adelaide, Australia) pre-treated with “blotto” (30 min, RT). The reaction volume was 120 μl. The β subunit also was incubated in the absence of peptide or in the presence of the α subunit at 76.5 (μg/ml in BB14. All samples were incubated for 1 h (RT). Two 50 μl samples were transferred from each well to a corresponding well of the washed and “blocked” α subunit coated plates, and further incubated for 30 min (RT).
The plates were washed and treated with rabbit serum raised to the β subunit. The anti-serum was diluted 1:1000 in WB3 containing 10% “blotto”, dispensed at 50 μl/well and incubated for 12 min (RT). The plates were washed again and treated with sheep anti-rabbit Ig-HRP conjugate (Silenus, Melbourne, Australia) diluted 1:1000 in WB3 containing 10% “blotto” (50 μl/well). The plate was incubated for 12 min (RT). After a final washing step, 1 mM 2,2′-azino-bis (3-ethylbenzthiazoline-6-sulfonic acid) was added (110 μl/well). Colour development was assessed at 405 nm using a plate reader (Multiskan Ascent, Labsystems, Sweden).
For the CMS compounds in the of α:β assays, buffer BB37 replaced buffer BB14. Buffer BB37 contains 10 mM MnCl2 instead of the 10 mM MgCl2 used in BB14. The buffer conditions were changed to improve the reproducibility and sensitivity of the α:β binding assay.
Compounds from the CMS library were dissolved in DMSO at 1 mg/ml in a 96 well tray format. A corresponding slave plate was prepared by adding 115 μl of BB37. Dissolved compounds (5 μl) from the master plate was added to the corresponding well in slave plates giving a final concentration of 41.7 μg/ml.
Compounds were assayed for inhibition of the binding of E. coli α to E. coli β as described in Example 13.
Peptides were assayed for inhibition of the binding of E. coli α to E. coli β as described in Example 6 with the exception that buffer BB37 replaced buffer BB14 in the alpha:beta binding assay. As noted above, BB37 contains 10 mM MnCl2 instead of 10 mM MgCl2 used in BB14. Again, the change in buffer conditions was made to improve the reproducibility and sensitivity of the α:β binding assay.

[2] = target: binding of E. coli δ to E. coli β (Escherichia coli, UniProt P0A988); assay: biochemical; conditions: for IC50: IC50 δ-binding, Table 21
[3] = test system: Enterococcus faecalis ATCC 33186; assay: Bacterial growth inhibition screen (A620); type: cell-based; conditions: overnight 35° C.; for inhibition at 50 µg/mL: ATCC33186, compound 50 μg/ml, read-out: inhibition of growth of E. faecalis
Protocol: (§1) Compounds with high similarity scores, or at the intersection of the results of searches using a number of different approaches, and available from the NCI or Molecular Science libraries were obtained and screened for inhibition of growth of E. coli ATCC 35218, Klebsiella pneumoniae ATCC 13885, Pseudomonas aeruginosa ATCC 27853, Staphylococcus aureus ATCC 25923 and Enterococcus faecalis ATCC 33186 as follows. Compounds were supplied dissolved in DMSO at 1 mg/ml in a 96 well tray format. Six corresponding slave plates were prepared by adding 85 μl of sterile water, and 100 μl of two times Muller Hinton broth. Dissolved compounds (5 μl) from the master plate was added to the corresponding well in slave plates giving a final concentration of 50 μg/ml.
(§2) Plates were then transferred to a PC2 Laboratory for inoculation with selected bacterial strains. The strains are freshly grown and diluted in normal saline to 0.5 McFarland Standard (NCCLS Performance standard for Dilution Antimicrobial Susceptibility Testing M7-A4 January 1997). This solution was further diluted 1:10 in normal saline to form the bacterial inoculation culture. 10 μl was used to inoculate each well. Plates were covered and placed in a 35° C. incubator over night before A620 was determined. Tetracycline was used as a standard antimicrobial compound.

[4] = test system: Staphylococcus aureus ATCC 25923; assay: Bacterial growth inhibition screen (A620); type: cell-based; conditions: overnight 35° C.; for inhibition at 50 µg/mL: ATCC25923, compound 50 μg/ml, read-out: inhibition of growth of S. aureus
Protocol: as §1, §2

E. coli ATCC 35218 = assay: Bacterial growth inhibition screen (A620); type: cell-based; conditions: Escherichia coli, ATCC35218, test conc 35 μg/ml, overnight 35° C., read-out: percent growth inhibition E. coli
Protocol: as §1, §2

[5] = test system: Klebsiella pneumoniae ATCC 13885; assay: Bacterial growth inhibition screen (A620); type: cell-based; conditions: ATCC13885, test conc 35 μg/ml, overnight 35° C., read-out: percent growth inhibition K. pneumoniae
Protocol: as §1, §2

[6] = test system: Pseudomonas aeruginosa ATCC 27853; assay: Bacterial growth inhibition screen (A620); type: cell-based; conditions: ATCC27853, test conc 35 μg/ml, overnight 35° C., read-out: percent growth inhibition P. aeruginosa
Protocol: as §1, §2

Sequence of binding of E. coli δ to E. coli β (P0A988 whole entry): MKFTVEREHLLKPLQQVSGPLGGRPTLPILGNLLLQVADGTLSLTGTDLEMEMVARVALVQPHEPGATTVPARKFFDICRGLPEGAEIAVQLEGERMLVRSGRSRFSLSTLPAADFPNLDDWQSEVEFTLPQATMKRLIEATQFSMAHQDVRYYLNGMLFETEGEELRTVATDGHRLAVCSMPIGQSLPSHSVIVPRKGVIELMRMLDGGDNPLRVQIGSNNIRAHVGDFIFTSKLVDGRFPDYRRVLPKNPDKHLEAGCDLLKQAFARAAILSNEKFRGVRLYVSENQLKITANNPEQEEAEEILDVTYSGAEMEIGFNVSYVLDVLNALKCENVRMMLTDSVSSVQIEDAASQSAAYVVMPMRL
T1 sequence (P0A988 whole entry): as above

SMILES	IC50 [1] [µM]	IC50 [2] [µM]	inhibition of the binding of δ to β ([2]; plate binding assay as in Example 6)	inhibition at 50 µg/mL [3] [%]	inhibition at 50 µg/mL [4] [%]	inhibition at 35 µg/mL (E. coli ATCC 35218) [%]	inhibition at 35 µg/mL ([3]; ATCC33186, test conc 35 μg/ml, A620, read-out: percent growth inhibition E. faecalis) [%]	inhibition at 35 µg/mL [5] [%]	inhibition at 35 µg/mL [6] [%]	inhibition at 35 µg/mL ([4]; ATCC25923, test conc 35 μg/ml, A620, read-out: percent growth inhibition S. aureus) [%]
CCC/C(=N\OC/C(Cl)=C/c1ccc(Cl)cc1)C1C(=O)CC(C)(C)CC1=O [AOC-07877]	270	90	significantly inhibited; also recorded: significant inhibitory activity	> 50	> 50	–	–	–	–	–
CCC/C(=N\OC/C(Cl)=C/c1ccc(Cl)cc1)C1C(=O)CC(C)(C)CC1=O [Peptide 07877]	–	–	–	–	–	17.6	59.6	8.3	3.9	84.7
CCC/C(=N\OC/C(C)=C(\O)c1ccc(C)cc1)C1C(=O)CC(CC)(CC)CC1=O [AOC-08944]	> 300	> 300	–	> 50	> 50	–	–	–	–	–
